# Earlier results in patent US20240139108A1, “ORAL PHARMACEUTICAL COMPOSITION OF ARSENIC TRIOXIDE” (INTAS PHARMACEUTICALS LTD., priority 2021, published 2024).
# What was measured:
# [1] = orally administered versus same amount administered intravenously
substance,measurement,setting,value
Diarsenic trioxide,peak plasma concentration,[1],lower peak plasma concentration
same,prolongation of the QT interval and ventricular tachycardia,[1],less prolongation of the QT interval and ventricular tachycardia
same,solubility in water,,low solubility in water
